Test results: US20230085307A1, “PYRIDAZINONE COMPOUND AND HERBICIDE” (NISSAN CHEMICAL CORPORATION, priority 2019, published 2023)

Columns and labels:
barnyard grass [1] = experiment: Test Example 3: herbicidal effect by foliage application, Wagner pot (Table 18, symbol H); type: in vivo, barnyard grass (Echinochloa crus-galli); conditions: 320 g/ha
Procedure, shortened: (§1)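 Plants were sown in alluvial soil held under 0.1–0.5 cm standing water and grown 14 days in a greenhouse at 25–30 °C. An emulsifiable formulation, water-diluted to the set dose, was then sprayed onto the foliage, and effects were scored three weeks later using previously defined criteria.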

Chinese sprangletop = experiment: Test Example 3: herbicidal effect by foliage application, Wagner pot (Table 18, symbol D); type: in vivo, chinese sprangletop (Leptochloa chinensis); conditions: 320 g/ha
Procedure, shortened: as §1

rice flat sedge = experiment: Test Example 3: herbicidal effect by foliage application, Wagner pot (Table 18, symbol E); type: in vivo, rice flat sedge (Cyperus iria); conditions: 320 g/ha
Procedure, shortened: as §1

southern crabgrass [2] = experiment: Test Example 4: herbicidal effect by soil treatment (Table 19, symbol F); type: in vivo, southern crabgrass (Digitaria ciliaris); conditions: amount of applied herbicide 320 g/ha
Procedure, shortened: (§2)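 Scoring uses the grading scale of an earlier test, three weeks post-application. Treatment consists of spraying a diluted emulsion formulation across the surface of sterilized diluvial soil in which seeds are buried near 1.5 cm deep; boxes are kept in a greenhouse between 25° C. and 30° C.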

green foxtail [3] = experiment: Test Example 4: herbicidal effect by soil treatment (Table 19, symbol G); type: in vivo, green foxtail (Setaria viridis); conditions: amount of applied herbicide 320 g/ha
Procedure, shortened: as §2

barnyard grass [4] = experiment: Test Example 4: herbicidal effect by soil treatment (Table 19, symbol H); type: in vivo, barnyard grass (Echinochloa crus-galli); conditions: amount of applied herbicide 320 g/ha
Procedure, shortened: as §2

wild oat [5] = experiment: Test Example 4: herbicidal effect by soil treatment (Table 19, symbol I); type: in vivo, wild oat (Avena fatua); conditions: amount of applied herbicide 320 g/ha
Procedure, shortened: as §2

blackgrass [6] = experiment: Test Example 4: herbicidal effect by soil treatment (Table 19, symbol J); type: in vivo, blackgrass (Alopecurus myosuroides); conditions: amount of applied herbicide 320 g/ha
Procedure, shortened: as §2

Italian ryegrass [7] = experiment: Test Example 4: herbicidal effect by soil treatment (Table 19, symbol K); type: in vivo, Italian ryegrass (Lolium multiflorum); conditions: amount of applied herbicide 320 g/ha
Procedure, shortened: as §2

windgrass [8] = experiment: Test Example 4: herbicidal effect by soil treatment (Table 19, symbol L); type: in vivo, windgrass (Apera spica-venti); conditions: amount of applied herbicide 320 g/ha
Procedure, shortened: as §2

velvetleaf [9] = experiment: Test Example 4: herbicidal effect by soil treatment (Table 19, symbol M); type: in vivo, velvetleaf (Abutilon theophrasti); conditions: amount of applied herbicide 320 g/ha
Procedure, shortened: as §2

redroot pigweed [10] = experiment: Test Example 4: herbicidal effect by soil treatment (Table 19, symbol N); type: in vivo, redroot pigweed (Amaranthus retroflexus); conditions: amount of applied herbicide 320 g/ha
Procedure, shortened: as §2

lambsquarters [11] = experiment: Test Example 4: herbicidal effect by soil treatment (Table 19, symbol O); type: in vivo, lambsquarters (Chenopodium album); conditions: amount of applied herbicide 320 g/ha
Procedure, shortened: as §2

chickweed [12] = experiment: Test Example 4: herbicidal effect by soil treatment (Table 19, symbol P); type: in vivo, common chickweed (Stellaria media); conditions: amount of applied herbicide 320 g/ha
Procedure, shortened: as §2

persian speedwell [13] = experiment: Test Example 4: herbicidal effect by soil treatment (Table 19, symbol R); type: in vivo, Persian speedwell (Veronica persica); conditions: amount of applied herbicide 320 g/ha
Procedure, shortened: as §2

southern crabgrass [14] = experiment: Test Example 5: herbicidal effect by foliage application, plastic box (Table 20, symbol F); type: in vivo, southern crabgrass (Digitaria ciliaris); conditions: foliage application, 320 g/ha, three weeks after application
Procedure, shortened: (§3)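 Post-emergence foliar test in sterilized diluvial soil. Compound applied as water-diluted emulsion at a predetermined rate to 14-day-old plants; evaluation at three weeks.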

green foxtail [15] = experiment: Test Example 5: herbicidal effect by foliage application, plastic box (Table 20, symbol G); type: in vivo, green foxtail (Setaria viridis); conditions: foliage application, 320 g/ha, three weeks after application
Procedure, shortened: as §3

barnyard grass [16] = experiment: Test Example 5: herbicidal effect by foliage application, plastic box (Table 20, symbol H); type: in vivo, barnyard grass (Echinochloa crus-galli); conditions: foliage application, 320 g/ha, three weeks after application
Procedure, shortened: as §3

wild oat [17] = experiment: Test Example 5: herbicidal effect by foliage application, plastic box (Table 20, symbol I); type: in vivo, wild oat (Avena fatua); conditions: foliage application, 320 g/ha, three weeks after application
Procedure, shortened: as §3

blackgrass [18] = experiment: Test Example 5: herbicidal effect by foliage application, plastic box (Table 20, symbol J); type: in vivo, blackgrass (Alopecurus myosuroides); conditions: foliage application, 320 g/ha, three weeks after application
Procedure, shortened: as §3

Italian ryegrass [19] = experiment: Test Example 5: herbicidal effect by foliage application, plastic box (Table 20, symbol K); type: in vivo, Italian ryegrass (Lolium multiflorum); conditions: foliage application, 320 g/ha, three weeks after application
Procedure, shortened: as §3

windgrass [20] = experiment: Test Example 5: herbicidal effect by foliage application, plastic box (Table 20, symbol L); type: in vivo, windgrass (Apera spica-venti); conditions: foliage application, 320 g/ha, three weeks after application
Procedure, shortened: as §3

velvetleaf [21] = experiment: Test Example 5: herbicidal effect by foliage application, plastic box (Table 20, symbol M); type: in vivo, velvetleaf (Abutilon theophrasti); conditions: foliage application, 320 g/ha, three weeks after application
Procedure, shortened: as §3

redroot pigweed [22] = experiment: Test Example 5: herbicidal effect by foliage application, plastic box (Table 20, symbol N); type: in vivo, redroot pigweed (Amaranthus retroflexus); conditions: foliage application, 320 g/ha, three weeks after application
Procedure, shortened: as §3

lambsquarters [23] = experiment: Test Example 5: herbicidal effect by foliage application, plastic box (Table 20, symbol O); type: in vivo, lambsquarters (Chenopodium album); conditions: foliage application, 320 g/ha, three weeks after application
Procedure, shortened: as §3

chickweed [24] = experiment: Test Example 5: herbicidal effect by foliage application, plastic box (Table 20, symbol P); type: in vivo, common chickweed (Stellaria media); conditions: foliage application, 320 g/ha, three weeks after application
Procedure, shortened: as §3

false cleavers = experiment: Test Example 5: herbicidal effect by foliage application, plastic box (Table 20, symbol Q); type: in vivo, false cleavers (Galium spurium); conditions: foliage application, 320 g/ha, three weeks after application
Procedure, shortened: as §3

persian speedwell [25] = experiment: Test Example 5: herbicidal effect by foliage application, plastic box (Table 20, symbol R); type: in vivo, Persian speedwell (Veronica persica); conditions: foliage application, 320 g/ha, three weeks after application
Procedure, shortened: as §3

SMILES: CCCC(=O)Oc1c(C)nn(C)c(=O)c1-c1c(-c2ccc(C)c(C)c2)sc2ccccc12 [1-066]
- herbicidal effect on H (barnyard grass), rating 0-5 (barnyard grass [1]): 2 (Herbicidal rate of 20% or more and less than 40%)
- herbicidal effect on D (Chinese sprangletop), rating 0-5 (Chinese sprangletop): 0 (Herbicidal rate of 5% or less (almost no effect))
- herbicidal effect on E (rice flat sedge), rating 0-5 (rice flat sedge): 5 (Herbicidal rate of 90% or more (almost completely withered))
- herbicidal effect rating, F: southern crabgrass (southern crabgrass [2]): 0 (Herbicidal rate of 5% or less (almost no effect))
- herbicidal effect rating, G: green foxtail (green foxtail [3]): 0 (Herbicidal rate of 5% or less (almost no effect))
- herbicidal effect rating, H: barnyard grass (barnyard grass [4]): 0 (Herbicidal rate of 5% or less (almost no effect))
- herbicidal effect rating, I: wild oat (wild oat [5]): 0 (Herbicidal rate of 5% or less (almost no effect))
- herbicidal effect rating, J: blackgrass (blackgrass [6]): 0 (Herbicidal rate of 5% or less (almost no effect))
- herbicidal effect rating, K: Italian ryegrass (Italian ryegrass [7]): 0 (Herbicidal rate of 5% or less (almost no effect))
- herbicidal effect rating, L: windgrass (windgrass [8]): 0 (Herbicidal rate of 5% or less (almost no effect))
- herbicidal effect rating, M: velvetleaf (velvetleaf [9]): 0 (Herbicidal rate of 5% or less (almost no effect))
- herbicidal effect rating, N: redroot pigweed (redroot pigweed [10]): 0 (Herbicidal rate of 5% or less (almost no effect))
- herbicidal effect rating, O: lambsquarters (lambsquarters [11]): 0 (Herbicidal rate of 5% or less (almost no effect))
- herbicidal effect rating, P: chickweed (chickweed [12]): 2 (Herbicidal rate of 20% or more and less than 40%)
- herbicidal effect rating, R: persian speedwell (persian speedwell [13]): 4 (Herbicidal rate of 70% or more and less than 90%)
- herbicidal effect grade, F: southern crabgrass (southern crabgrass [14]): 2 (Herbicidal rate of 20% or more and less than 40%)
- herbicidal effect grade, G: green foxtail (green foxtail [15]): 3 (Herbicidal rate of 40% or more and less than 70%)
- herbicidal effect grade, H: barnyard grass (barnyard grass [16]): 2 (Herbicidal rate of 20% or more and less than 40%)
- herbicidal effect grade, I: wild oat (wild oat [17]): 1 (Herbicidal rate of 5% or more and less than 20%)
- herbicidal effect grade, J: blackgrass (blackgrass [18]): 0 (Herbicidal rate of 5% or less (almost no effect))
- herbicidal effect grade, K: Italian ryegrass (Italian ryegrass [19]): 0 (Herbicidal rate of 5% or less (almost no effect))
- herbicidal effect grade, L: windgrass (windgrass [20]): 0 (Herbicidal rate of 5% or less (almost no effect))
- herbicidal effect grade, M: velvetleaf (velvetleaf [21]): 4 (Herbicidal rate of 70% or more and less than 90%)
- herbicidal effect grade, N: redroot pigweed (redroot pigweed [22]): 4 (Herbicidal rate of 70% or more and less than 90%)
- herbicidal effect grade, O: lambsquarters (lambsquarters [23]): 0 (Herbicidal rate of 5% or less (almost no effect))
- herbicidal effect grade, P: chickweed (chickweed [24]): 5 (Herbicidal rate of 90% or more (almost completely withered))
- herbicidal effect grade, Q: false cleavers (false cleavers): 2 (Herbicidal rate of 20% or more and less than 40%)
- herbicidal effect grade, R: persian speedwell (persian speedwell [25]): 5 (Herbicidal rate of 90% or more (almost completely withered))
